Consider 30 compounds from patent US4086350A, “Pharmaceutical compositions and method of producing anti-psychotic activity without extrapyramidal symptoms” (priority 1975, dated 1978).

The subject of assay [1] is striatal dopamine receptors. Put plainly: Antagonism of amphetamine-induced rotation in rats with unilateral substantia nigra lesions (Ungerstedt). It is filed as in vivo, rat. The settings on record: i.p. The source says:
There is evidence that antipsychotic drugs cause EPS by interfering with neurotransmission in a nigrostriatal dopaminergic pathway. It is thought that they block dopamine receptors in the neostriatum. Therefore, the ability of a drug to block striatal dopamine receptors is a measure of its EPS liability.
To assess the potency of drugs in blocking striatal dopamine receptors a procedure was used which was developed by Ungerstedt [Ungerstedt and Arbuthnott, Brain Res. 24 485 (1970); Ungerstedt, Acta physiol. scand., Suppl. 367, 49 (1971)] using rats with unilateral lesions of the substantia nigra induced by injection of 6-hydroxydopamine. This treatment causes degeneration of the nigrostriatal dopaminergic pathway accompanied by a marked decrease in the dopamine content of the neostriatum on the side of the lesion. Animals with this lesion develop postural and motor asymmetries which are altered by drugs which affect dopaminergic activity. Amphetamine, which releases dopmine and norepinephrine from catecholaminergic neurons, causes these rats to rotate unidirectionally toward the side of the lesion. Since there is a much larger amount of dopamine to be released by amphetamine from the intact nigrostriatal neurons on the non-lesioned side than from those remaining on the lesioned side, the rotational behavior is apparently due to the preponderance of activation of striatal dopamine receptors on the intact side. The ability of a drug to antagonize the rotational behavior is therefore a measure of its ability to block striatal dopamine receptors and is indicative of its potential to produce EPS.
(§1) To predict the potential ability of a drug to cause EPS, the ratio of its ED50 (i.p.) for antagonism of amphetamine-induced rotation to its ED50 (i.p.) for blockade of shock avoidance acquisition in the rat, a procedure for assessing antipsychotic activity, (R/A ratio) is calculated.

In assay [2] the test system is amphetamine-induced rotation vs. avoidance acquisition. Put plainly: R/A ratio: ED50 amphetamine-induced rotation / ED50 avoidance acquisition. The format is in vivo, rat. As to the method:
as §1

For assay [3], the system named is shock avoidance acquisition in the rat. Put plainly: Antagonism of shock avoidance acquisition in the rat (antipsychotic activity). The format is in vivo. The settings on record: ip, read-out: Antagonism of Avoidance Acquisition, Rats, ED50 (A). As to the method:
as §1

The mark [4] stands for this setting: clinically established antipsychotics (Table I).
[5] abbreviates: ratio of i.p. ED50 values in rats, clinically established antipsychotics (Table I).
Setting [6] is: piperidylidene derivatives (Table II).
[7] abbreviates: ratio of i.p. ED50 values in rats, piperidylidene derivatives (Table II).
Setting [8] is: rats, i.p., piperidylidene derivatives (Table II).

Like-named read-outs stand apart in the source and are kept apart here.

As for `CN(C)CCCN1c2ccccc2Sc2ccc(Cl)cc21` [Chlorpromazine, reference compound], in assay [1] (setting [4]), the “Antagonism of Amphetamine-induced Rotation, Rats, ED50 (R)” value (from here on “Antagonism”) was determined as 2.0 mg/kg. In assay [2] (setting [5]), the R/A ratio is given as 1.3.
On to `O=C(CCCN1CCC(O)(c2ccc(Cl)cc2)CC1)c1ccc(F)cc1` [Haloperidol, reference compound], for which the “Antagonism” value in assay [1] (setting [4]) worked out at 0.05 mg/kg. Moreover, in assay [2] (setting [5]), the R/A ratio is recorded as 0.31.
A word on the ED50: it is the midpoint of the dose-response relation. For `CN1CCC(=C2c3ccccc3Sc3ccc(Cl)cc32)CC1` [I, 4-(2-chloro-9-thioxanthenylidene)-1-methylpiperidine], the 50% effective dose (ED50) in assay [3] was 0.7 mg/kg. Also, the “Antagonism” value in assay [1] (setting [6]) is listed as 14.2 mg/kg. In addition, in assay [2] (setting [7]), the R/A ratio stood at 20.3.
On the same counts, the results for `CSc1ccc2c(c1)C(=C1CCN(C)CC1)c1ccccc1S2` [II, 1-methyl-4-(2-methylthio-9-thioxanthenylidene)-piperidine] are 0.2 mg/kg, 3.7 mg/kg and 18.5.
Turning to `CN1CCC(=C2c3ccccc3Sc3cc(Cl)ccc32)CC1` [III, 4-(3-chloro-9-thioxanthenylidene)-1-methylpiperidine], in assay [3] (setting [8]), the median effective dose (ED50) is 5.3 mg/kg. Further, the “Antagonism” value in assay [1] (setting [6]) is given as 30.8 mg/kg. In addition, the R/A ratio in assay [2] (setting [7]) was 5.8.
As for `CN1CCC(=C2c3ccccc3Oc3ccc(Cl)cc32)CC1` [IV, 4-(2-chloro-9-xanthenylidene)-1-methylpiperidine], the ED50 in assay [3] (setting [8]) turned out to be 0.23 mg/kg. Further, the “Antagonism” value in assay [1] (setting [6]) is on record as 2.8 mg/kg. In assay [2] (setting [7]), the R/A ratio turned out to be 12.2.
On the same counts, the results for `OCCN1CCC(=C2c3ccccc3Sc3ccc(Cl)cc32)CC1` [IX, 4-(2-chloro-9-thioxanthenylidene)-1-(β-hydroxyethyl)piperidine] are 0.26 mg/kg, 1.22 mg/kg and 4.7.
Take `O=c1[nH]c2ccccc2n1C1CCN(CCCC(c2ccc(F)cc2)c2ccc(F)cc2)CC1` [Pimozide, reference compound]: the “Antagonism” value in assay [1] (setting [4]) is reported as 0.08 mg/kg. Also, the R/A ratio in assay [2] (setting [5]) is given as 0.30.
As to `CN1CCN(CCCN2c3ccccc3Sc3ccc(C(F)(F)F)cc32)CC1` [Trifluoperazine, reference compound], the R/A ratio in assay [2] (setting [5]) was found to be 0.46.
As for `CSc1ccc2c(c1)C(=C1CCN(C)CC1)c1ccccc1O2` [V, 1-methyl-4-(2-methylthio-9-xanthenylidene)piperidine], in assay [3] (setting [8]), the 50% effective dose (ED50) worked out at 0.6 mg/kg. Also, the “Antagonism” value in assay [1] (setting [6]) is reported as 1.8 mg/kg. Moreover, the R/A ratio in assay [2] (setting [7]) worked out at 3.0.
Regarding `CN1CCC(=C2c3ccccc3Oc3ccc(C(F)(F)F)cc32)CC1` [VI, 1-methyl-4-(2-trifluoromethyl-9-xanthenylidene)-piperidine], the median effective dose (ED50) in assay [3] (setting [8]) came to 0.07 mg/kg. For the same compound, in assay [1] (setting [6]), the “Antagonism” value is 0.26 mg/kg. For the same compound, the R/A ratio in assay [2] (setting [7]) is 3.7.
Consider `CN1CCC(=C2c3ccccc3COc3ccc(Cl)cc32)CC1` [VII, 4-(2-chloro-11(6H)-dibenz[b,e]oxepinylidene)-1-methylpiperidine], for which, in assay [3] (setting [8]), the median effective dose (ED50) came to 1.7 mg/kg. Moreover, in assay [1] (setting [6]), the “Antagonism” value is on record as 9.4 mg/kg. Also, the R/A ratio in assay [2] (setting [7]) came to 5.5.
In the same order, the values of `CN1CCC(=C2c3ccccc3Oc3ccc(F)cc32)CC1` [VIII, 4-(2-fluoro-9-xanthenylidene)-1-methylpiperidine] are 0.71 mg/kg, 5.6 mg/kg and 7.9.
As for `CN1CCC(=C2c3ccccc3Oc3ccc(Br)cc32)CC1` [X, 4-(2-bromo-9-xanthenylidene)-1-methylpiperidine], the ED50 in assay [3] (setting [8]) came out at 0.3 mg/kg. Moreover, the “Antagonism” value in assay [1] (setting [6]) is 1.6 mg/kg. Besides, in assay [2] (setting [7]), the R/A ratio is on record as 5.3.
In the same order, the values of `CN1CCC(=C2c3ccccc3Oc3ccc(C#N)cc32)CC1` [XI, 4-(2-cyano-9-xanthenylidene)-1-methylpiperidine] are 0.09 mg/kg, 0.29 mg/kg and 3.2.
In the same order, the values of `CN1CCC(=C2c3ccccc3Sc3ccc(F)cc32)CC1` [XII, 4-(2-fluoro-9-thioxanthenylidene)-1-methylpiperidine] are 1.8 mg/kg, 5.5 mg/kg and 3.1.
In the same order, the values of `CN1CCC(=C2c3ccccc3Sc3cc(F)ccc32)CC1` [XIII, 4-(3-fluoro-9-thioxanthenylidene)-1-methylpiperidine] are 3 mg/kg, 17.7 mg/kg and 5.8.
Regarding `CN1CCC(=C2c3ccccc3Sc3ccc(Br)cc32)CC1` [XIV, 4-(2-bromo-9-thioxanthenylidene)-1-methylpiperidine], the ED50 in assay [3] (setting [8]) turned out to be 0.3 mg/kg. Moreover, the “Antagonism” value in assay [1] (setting [6]) was 2.7 mg/kg. Further, the R/A ratio in assay [2] (setting [7]) worked out at 9.0.
Take `Clc1ccc2c(c1)C(=C1CCN(CC3CCC3)CC1)c1ccccc1S2` [XIX, 4-(2-chloro-9-thioxanthenylidene)-1-cyclobutylmethylpiperidine]: the ED50 in assay [3] (setting [8]) was 0.5 mg/kg. Besides, in assay [1] (setting [6]), the “Antagonism” value is recorded as 1.9 mg/kg. The R/A ratio in assay [2] (rat, in vivo, ip) stood at 3.8.
With `CN1CCC(=C2c3ccc(Cl)cc3Sc3ccc(F)cc32)CC1` [XV, 4-(6-chloro-2-fluoro-9-thioxanthenylidene)-1-methylpiperidine], the ED50 in assay [3] (setting [8]) worked out at 0.6 mg/kg. Also, the “Antagonism” value in assay [1] (setting [6]) is listed as 8.7 mg/kg. Also, in assay [2] (setting [7]), the R/A ratio was found to be 14.5.
On the same counts, the results for `CN1CCC(=C2c3ccc(Cl)cc3Oc3ccc(F)cc32)CC1` [XVI, 4-(6-chloro-2-fluoro-9-xanthenylidene)-1-methylpiperidine] are 0.15 mg/kg, 1.12 mg/kg and 7.5.
Regarding `CCN1CCC(=C2c3ccccc3Sc3ccc(Cl)cc32)CC1` [XVII, 4-(2-chloro-9-thioxanthenylidene)-1-ethylpiperidine], the ED50 in assay [3] (setting [8]) stood at 0.5 mg/kg. The “Antagonism” value in assay [1] (setting [6]) is 5.0 mg/kg. In addition, the R/A ratio in assay [2] (setting [7]) is reported as 10.0.
In the same order, the values of `CCCCN1CCC(=C2c3ccccc3Sc3ccc(Cl)cc32)CC1` [XVIII, 4-(2-chloro-9-thioxanthenylidene)-1-n-butylpiperidine] are 0.94 mg/kg, 3.1 mg/kg and 3.3.
In the same order, the values of `Clc1ccc2c(c1)C(=C1CCNCC1)c1ccccc1O2` [XX, 4-(2-chloro-9-xanthenylidene)-piperidine] are 1.7 mg/kg, 8.1 mg/kg and 4.8.
In the same order, the values of `CCN1CCC(=C2c3ccccc3Oc3ccc(Cl)cc32)CC1` [XXI, 4-(2-chloro-9-xanthenylidene)-1-ethylpiperidine] are 0.5 mg/kg, 1.8 mg/kg and 3.6.
Turning to `OCCN1CCC(=C2c3ccccc3Oc3ccc(Cl)cc32)CC1` [XXII, 4-(2-chloro-9-xanthenylidene)-1-(β-hydroxyethyl)-piperidine], the 50% effective dose (ED50) in assay [3] (setting [8]) came out at 0.2 mg/kg. The “Antagonism” value in assay [1] (setting [6]) was 1.3 mg/kg. Moreover, the R/A ratio in assay [2] (setting [7]) is reported as 6.5.
As for `CCCN1CCC(=C2c3ccccc3Oc3ccc(Cl)cc32)CC1` [XXIII, 4-(2-chloro-9-xanthenylidene)-1-n-propylpiperidine], the ED50 in assay [3] (setting [8]) came to 0.6 mg/kg. In addition, the “Antagonism” value in assay [1] (setting [6]) was found to be 2.4 mg/kg. Further, in assay [2] (setting [7]), the R/A ratio is reported as 4.0.
In the same order, the values of `Clc1ccc2c(c1)C(=C1CCN(CC3CCC3)CC1)c1ccccc1O2` [XXIV, 4-(2-chloro-9-xanthenylidene)-1-cyclobutylmethylpiperidine] are 0.5 mg/kg, 1.6 mg/kg and 3.2.
On the same counts, the results for `CN1CCC(=C2c3ccc(F)cc3Sc3ccc(F)cc32)CC1` [XXIX, 4-(2,6-difluoro-9-thioxanthenylidene)-1-methylpiperidine] are 0.5 mg/kg, 2.4 mg/kg and 4.8.
In the same order, the values of `Brc1ccc2c(c1)C(=C1CCNCC1)c1ccccc1O2` [XXV, 4-(2-bromo-9-xanthenylidene)-piperidine] are 0.6 mg/kg, 4.0 mg/kg and 6.7.
